Assay results taken from patent US11458189B2, “Cytoprotective drugs” (BALMES TRANSPLANTATION, priority 2017, dated 2022).
Starred links: 1 amine or outer side, 2 acyl side, 3 side chain; linkers in the order of their positions; H or OH if unused. Positions of bridges follow the written chain, without caps; N, C: chain ends. Non-standard residues stand in square brackets, D forms with d. Residues, ends and D or L forms follow the SMILES beside them. ξ: configuration not given here. *: point of attachment. hTyr(3S-OH,4S-OH,3'-OSO3H) = N[C@H](C(=O)O)[C@H](O)[C@@H](O)c1ccc(O)c(OS(=O)(=O)O)c1; pTerphenylCO(4''-OnC5H11) = CCCCCOc1ccc(-c2ccc(-c3ccc(C(=O)*)cc3)cc2)cc1; Orn(4R-OH,5R-OH) = O=C([C@H](C[C@@H](O)[C@@H](O)N[*:3])N[*:1])[*:2]; hTyr(3S-OH,4S-OH) = N[C@H](C(=O)O)[C@H](O)[C@@H](O)c1ccc(O)cc1; Pro(3S-OH,4S-Me) = C[C@H]1CN[C@H](C(=O)O)[C@H]1O; X1 = CCCCCOc1ccc(-c2cc(-c3ccc(C(=O)*)cc3)no2)cc1; Gln(3R-OH) = NC(=O)C[C@@H](O)[C@H](N)C(=O)O; ξPro(4R-OH) = O=C(O)C1C[C@@H](O)CN1; Hyp = O=C(O)[C@@H]1C[C@@H](O)CN1

Tested on: Bovine Brain Microvascular Endothelial Cells (BBMEC)
Assay: Oxygen and glucose deprivation followed by replenishment, cell survival (calcein AM), BBMEC
Assay type: cell-based
Method: Anidulafungin and micafungin were tested on Human Renal Glomerular Endothelial Cells (HRGEC, Innoprot P10665), on Human Renal Proximal Tubular Epithelial Cells (HRPTEpiC, Innoprot P10662), on Human Astrocytes (HA, caltag SC-1800), on Human Cardiac Microvascular Endothelial Cells (HCMEC, Caltag SC-6000), on Human Hepatic Sinusoidal Endothelial Cells (HHSEC, Caltag SC-5000), on Rat Primary Kidney Glomerular Endothelial cells (Cellbiologics, RN-6014G) and on Bovine Brain Microvascular Endothelial Cells (BBMEC, Caltag SC-B100).
In a first phase, these isolated, purified and cryopreserved cells are thawed and multiplied according to the supplier's recommendations in T75 or T175 flasks pre-coated with 2 μg of fibronectin/[…] (CORNING) for HRGEC, HCMEC, HHSEC and BBMEC, or 2 μg poly-L-lysin/cm^2 (Caltag SC-0403) for HRPTEpiC and HA, or 15 mL/flask 175 cm^2 gelatin-based solution (Cellbiologics) in the presence of endothelial cell supplemented growth medium ECM (P60104, INNOPROT, Caltag, SC-1001) for HRGEC, HCMEC, HHSEC, RPKGEC or BBMEC, or astrocyte cell supplemented growth medium AM (Caltag SC-1801) for HA or epithelial cell supplemented growth medium EpiCM (P60106, INNOPROT) for HRPTEpiC, at 37° C. under 5% CO2 and saturated humidity until their confluency. They are then harvested by trypsinization according to the method described by the supplier for exactly 5 minutes and then reseeded in new flasks a maximum of three times.
To carry out the oxygen and glucose deprivation test followed by their replenishment, the cells will be seeded in 96-well black plates with transparent flat bottom (GREINER). Once a sufficient number of cells has been obtained to allow seeding of 2000 to 15000 cells per well of 96-well plates depending on the cell type, the cells are seeded in these 96-well plates previously coated with an extracellular matrix as listed above for the flasks. The cells are cultured for 5 to 8 days according to the cell type, in the presence of the same growth medium as in the flask as described above except for HRGEC and HRPTEpiC for which DMEM (DUTSCHER) with 1 g/L of supplemented glucose is used, at 37° C. under 5% CO2 and saturated humidity to obtain confluency.
On the first day of oxygen and glucose deprivation, (5th, 6th, 7th or 8th day of culture), the culture conditions are drastically changed. The medium of all plates is removed and replaced by DMEM (DUTSCHER) medium without glucose and supplemented only with 1% penicillin-streptomycin (DUTSCHER). Anidulafungin or micafungin dissolved in dimethyl sulfoxide (DMSO) is then added to each well at the desired concentration, resulting in a maximum of 1% DMSO, and the plates are placed under hypoxia at <1% 02 and 5% CO2 at 37° C. for 24 hours of culture. Each compound was tested in a concentration range.
After 24 hours, the growth medium is changed and replaced by a richer medium, DMEM (DUTSCHER) at 1 g/L glucose and 2% FBS (INNOPROT) and 1% penicillin-streptomycin (DUTSCHER). These media will have been pre-equilibrated at 37° C. in advance. The cells are then returned to culture at 37° C. under 20% 02 and 5% CO2 for 22h.
After 22 hours of reoxygenation, the potential protective effect of anidulafungin or micafungin is measured by a cell viability test using calcein AM (CORNING), which is a dye substrate. The calcein AM can easily cross the cell membrane of the viable cells. The AM ester groups mask the part of the molecule that chelates calcium. Once inside the cells, the (non-fluorescent) calcein AM is hydrolyzed to (fluorescent) calcein by endogenous esterases. The resulting calcein molecule binds to calcium inside the cell and remains trapped inside the cell. These molecules emit strong green fluorescence when subjected to […] of a particular wavelength (495 nm). Since dead cells lack esterase activity, only living cells are labelled.
This cell viability test is performed in two steps. […]

[1] = [Anidulafungin] log μM 0.1760913
[2] = [Anidulafungin] log μM −0.1249387
[3] = [Anidulafungin] log μM −0.30103
[4] = [Anidulafungin] log μM −0.5228788

CCCCCOc1ccc(-c2ccc(-c3ccc(C(=O)N[C@H]4C[C@@H](O)[C@@H](O)NC(=O)[C@@H]5[C@@H](O)[C@@H](C)CN5C(=O)[C@H]([C@@H](C)O)NC(=O)[C@H]([C@H](O)[C@@H](O)c5ccc(O)cc5)NC(=O)C5C[C@@H](O)CN5C(=O)[C@H]([C@@H](C)O)NC4=O)cc3)cc2)cc1 (stereo partly drawn) [Anidulafungin] ({pTerphenylCO(4''-OnC5H11)}-[Orn(4R-OH,5R-OH)]T[ξPro(4R-OH)][hTyr(3S-OH,4S-OH)]T[Pro(3S-OH,4S-Me)]; lactam 1-C)
Globalfluo assay 1 ([Anidulafungin] log μM 0): 941644 arbitrary units | Globalfluo assay 2 ([Anidulafungin] log μM 0): 1153883 arbitrary units | Globalfluo assay 3 ([Anidulafungin] log μM 0): 1374585 arbitrary units | Mean globalfluo ([Anidulafungin] log μM 0): 1156704 arbitrary units | Survival rate (%) ([Anidulafungin] log μM 0): 30% | Globalfluo assay 1 [1]: 2348228 arbitrary units | Globalfluo assay 2 [1]: 1617378 arbitrary units | Globalfluo assay 3 [1]: 1887981 arbitrary units | Mean globalfluo [1]: 1951196 arbitrary units | Survival rate (%) [1]: 77% | Globalfluo assay 1 ([Anidulafungin] log μM 0.30103): 2455048 arbitrary units | Globalfluo assay 2 ([Anidulafungin] log μM 0.30103): 2409886 arbitrary units | Globalfluo assay 3 ([Anidulafungin] log μM 0.30103): 4507112 arbitrary units | Mean globalfluo ([Anidulafungin] log μM 0.30103): 3124015 arbitrary units | Survival rate (%) ([Anidulafungin] log μM 0.30103): 145% | Globalfluo assay 1 ([Anidulafungin] log μM 0.60206): 4710709 arbitrary units | Globalfluo assay 2 ([Anidulafungin] log μM 0.60206): 5014887 arbitrary units | Globalfluo assay 3 ([Anidulafungin] log μM 0.60206): 4901610 arbitrary units | Mean globalfluo ([Anidulafungin] log μM 0.60206): 4875735 arbitrary units | Survival rate (%) ([Anidulafungin] log μM 0.60206): 248% | Globalfluo assay 1 [2]: 1165160 arbitrary units | Globalfluo assay 2 [2]: 919370 arbitrary units | Globalfluo assay 3 [2]: 944308 arbitrary units | Mean globalfluo [2]: 1009613 arbitrary units | Survival rate (%) [2]: 22% | Globalfluo assay 1 [3]: 744687 arbitrary units | Globalfluo assay 2 [3]: 1045135 arbitrary units | Globalfluo assay 3 [3]: 678965 arbitrary units | Mean globalfluo [3]: 822929 arbitrary units | Survival rate (%) [3]: 11% | Globalfluo assay 1 [4]: 800327 arbitrary units | Globalfluo assay 2 [4]: 708910 arbitrary units | Globalfluo assay 3 [4]: 845212 arbitrary units | Mean globalfluo [4]: 784816 arbitrary units | Survival rate (%) [4]: 8% | Globalfluo assay 1 ([Anidulafungin] log μM −1): 649447 arbitrary units | Globalfluo assay 2 ([Anidulafungin] log μM −1): 1235676 arbitrary units | Globalfluo assay 3 ([Anidulafungin] log μM −1): 807779 arbitrary units | Mean globalfluo ([Anidulafungin] log μM −1): 897634 arbitrary units | Survival rate (%) ([Anidulafungin] log μM −1): 15% | Globalfluo assay 1 ([Anidulafungin] log μM −2): 664396 arbitrary units | Globalfluo assay 2 ([Anidulafungin] log μM −2): 532817 arbitrary units | Globalfluo assay 3 ([Anidulafungin] log μM −2): 541230 arbitrary units | Mean globalfluo ([Anidulafungin] log μM −2): 579481 arbitrary units | Survival rate (%) ([Anidulafungin] log μM −2): −4%

CCCCCOc1ccc(-c2cc(-c3ccc(C(=O)N[C@H]4C[C@@H](O)[C@@H](O)NC(=O)[C@@H]5[C@@H](O)[C@@H](C)CN5C(=O)[C@H]([C@H](O)CC(N)=O)NC(=O)[C@H]([C@H](O)[C@@H](O)c5ccc(O)c(OS(=O)(=O)O)c5)NC(=O)[C@@H]5C[C@@H](O)CN5C(=O)[C@H]([C@@H](C)O)NC4=O)cc3)no2)cc1 [Micafungin, {5-[(1S,2S)-2-[(3S,6S,9S,11R,15S,18S,20R,21R,24S,25S,26S)-3-[(1R)-2-carbamoyl-1-hydroxyethyl]-11,20,21,25-tetrahydroxy-15-[(1R)-1-hydroxyethyl]-26-methyl-2,5,8,14,17,23-hexaoxo-18-[(4-{5-[4-(pentyloxy)phenyl]-1,2-oxazol-3-yl}benzene)amido]-1,4,7,13,16,22-hexaazatricyclo[22.3.0.0]heptacosan-6-yl]-1,2-dihydroxyethyl]-2-hydroxyphenyl}oxidanesulfonic acid] (X1-[Orn(4R-OH,5R-OH)]T[Hyp][hTyr(3S-OH,4S-OH,3'-OSO3H)][Gln(3R-OH)][Pro(3S-OH,4S-Me)]; lactam 1-C)
Globalfluo assay 1 ([Micafungin] log μM 0): 1369504 arbitrary units | Globalfluo assay 2 ([Micafungin] log μM 0): 1354112 arbitrary units | Globalfluo assay 3 ([Micafungin] log μM 0): 1230715 arbitrary units | Mean globalfluo ([Micafungin] log μM 0): 1318110 arbitrary units | Survival rate (%) ([Micafungin] log μM 0): 23% | Globalfluo assay 1 ([Micafungin] log μM 0.4771213): 2106751 arbitrary units | Globalfluo assay 2 ([Micafungin] log μM 0.4771213): 1655153 arbitrary units | Globalfluo assay 3 ([Micafungin] log μM 0.4771213): 1618365 arbitrary units | Mean globalfluo ([Micafungin] log μM 0.4771213): 1793423 arbitrary units | Survival rate (%) ([Micafungin] log μM 0.4771213): 46% | Globalfluo assay 1 ([Micafungin] log μM 0.7781513): 1732851 arbitrary units | Globalfluo assay 2 ([Micafungin] log μM 0.7781513): 1742799 arbitrary units | Globalfluo assay 3 ([Micafungin] log μM 0.7781513): 1796080 arbitrary units | Mean globalfluo ([Micafungin] log μM 0.7781513): 1757243 arbitrary units | Survival rate (%) ([Micafungin] log μM 0.7781513): 44% | Globalfluo assay 1 ([Micafungin] log μM 0.90309): 3787727 arbitrary units | Globalfluo assay 2 ([Micafungin] log μM 0.90309): 1942995 arbitrary units | Globalfluo assay 3 ([Micafungin] log μM 0.90309): 2729816 arbitrary units | Mean globalfluo ([Micafungin] log μM 0.90309): 2820179 arbitrary units | Survival rate (%) ([Micafungin] log μM 0.90309): 96% | Globalfluo assay 1 ([Micafungin] log μM 1): 3519337 arbitrary units | Globalfluo assay 2 ([Micafungin] log μM 1): 3058877 arbitrary units | Globalfluo assay 3 ([Micafungin] log μM 1): 3179364 arbitrary units | Mean globalfluo ([Micafungin] log μM 1): 3252526 arbitrary units | Survival rate (%) ([Micafungin] log μM 1): 117% | Globalfluo assay 1 ([Micafungin] log μM 1.079181): 2865371 arbitrary units | Globalfluo assay 2 ([Micafungin] log μM 1.079181): 2913567 arbitrary units | Globalfluo assay 3 ([Micafungin] log μM 1.079181): 3561196 arbitrary units | Mean globalfluo ([Micafungin] log μM 1.079181): 3113378 arbitrary units | Survival rate (%) ([Micafungin] log μM 1.079181): 110% | Globalfluo assay 1 ([Micafungin] log μM 1.176091): 2994828 arbitrary units | Globalfluo assay 2 ([Micafungin] log μM 1.176091): 3496204 arbitrary units | Globalfluo assay 3 ([Micafungin] log μM 1.176091): 3106542 arbitrary units | Mean globalfluo ([Micafungin] log μM 1.176091): 3199191 arbitrary units | Survival rate (%) ([Micafungin] log μM 1.176091): 114% | Globalfluo assay 1 ([Micafungin] log μM 1.30103): 3526958 arbitrary units | Globalfluo assay 2 ([Micafungin] log μM 1.30103): 3025877 arbitrary units | Globalfluo assay 3 ([Micafungin] log μM 1.30103): 3586726 arbitrary units | Mean globalfluo ([Micafungin] log μM 1.30103): 3379854 arbitrary units | Survival rate (%) ([Micafungin] log μM 1.30103): 123% | Globalfluo assay 1 ([Micafungin] log μM 1.477121): 2506989 arbitrary units | Globalfluo assay 2 ([Micafungin] log μM 1.477121): 2361926 arbitrary units | Globalfluo assay 3 ([Micafungin] log μM 1.477121): 2557219 arbitrary units | Mean globalfluo ([Micafungin] log μM 1.477121): 2475378 arbitrary units | Survival rate (%) ([Micafungin] log μM 1.477121): 79% | Globalfluo assay 1 ([Micafungin] log μM −0.5228788): 1907644 arbitrary units | Globalfluo assay 2 ([Micafungin] log μM −0.5228788): 993296 arbitrary units | Globalfluo assay 3 ([Micafungin] log μM −0.5228788): 1867099 arbitrary units | Mean globalfluo ([Micafungin] log μM −0.5228788): 1589346 arbitrary units | Survival rate (%) ([Micafungin] log μM −0.5228788): 36% | Globalfluo assay 1 ([Micafungin] log μM −1): 1108584 arbitrary units | Globalfluo assay 2 ([Micafungin] log μM −1): 1249769 arbitrary units | Globalfluo assay 3 ([Micafungin] log μM −1): 1224251 arbitrary units | Mean globalfluo ([Micafungin] log μM −1): 1194201 arbitrary units | Survival rate (%) ([Micafungin] log μM −1): 17% | Globalfluo assay 1 ([Micafungin] log μM −2): 1778372 arbitrary units | Globalfluo assay 2 ([Micafungin] log μM −2): 817005 arbitrary units | Globalfluo assay 3 ([Micafungin] log μM −2): 1173090 arbitrary units | Mean globalfluo ([Micafungin] log μM −2): 1256156 arbitrary units | Survival rate (%) ([Micafungin] log μM −2): 20%
